These results are taken from paper PMC4051630, “A Comparison of Protein Kinases Inhibitor Screening Methods Using Both Enzymatic Activity and Binding Affinity Determination” (PLoS ONE, 2014).

What all share (experiment): Differential Scanning Fluorimetry (DSF) Tm shift
What all share (format): binding

In one assay the target is T1, AKT3 Catalytic Domain (Homo sapiens, UniProt Q9Y243).
T1 construct: AKT3 (Q9Y243); CD; His-tag; made in house; host or cells: Escherichia coli
Particulars: 2 µM protein, 10 µM inhibitor, average of 3 experiments, each in duplicate.

Another assay deals with T2, CDK2 + Cyclin A (Homo sapiens, UniProt P24941).
T2 construct: CDK2 (P24941); 1–299; His-tag; made in house; host or cells: Escherichia coli
The settings on record: CDK2 + Cyclin A; 2 µM protein, 10 µM inhibitor; average of 3 experiments, each in duplicate.

The target of a further assay is T3, CDK2 + Cyclin E (Homo sapiens, UniProt P24941).
T3 construct: CDK2 (P24941); 1–299; His-tag; made in house; host or cells: Escherichia coli
Particulars: CDK2 + Cyclin E; 2 µM protein, 10 µM inhibitor; average of 3 experiments, each in duplicate.

The target of another assay is T4, CHK2 Catalytic Domain (Homo sapiens, UniProt O96017).
T4 construct: For all of them, we expressed and purified the catalytic domain separately; His-tag; made in house; host or cells: Escherichia coli
Particulars: 2 µM protein, 10 µM inhibitor, average of 3 experiments, each in duplicate.

A further assay addresses T5, FAK2 Catalytic Domain (Homo sapiens, UniProt Q14289).
T5 construct: For all of them, we expressed and purified the catalytic domain separately; His-tag; made in house; host or cells: Escherichia coli
Particulars: 2 µM protein, 10 µM inhibitor, average of 3 experiments, each in duplicate.

Assay [1] concerns the target T6, PAK4 Catalytic Domain+PBD (Homo sapiens, UniProt O96013).
T6 construct: for 8, we also made a longer version containing one or more additional domains; His-tag; made in house; host or cells: Escherichia coli
The settings on record: 2 µM protein, 10 µM inhibitor, average of 3 experiments, each in duplicate.

In the next assay the target is T7, STK3 Catalytic Domain (Homo sapiens, UniProt Q13188).
T7 construct: For all of them, we expressed and purified the catalytic domain separately; His-tag; made in house; host or cells: Escherichia coli
T7 sequence (Q13188 27-278 limits assumed): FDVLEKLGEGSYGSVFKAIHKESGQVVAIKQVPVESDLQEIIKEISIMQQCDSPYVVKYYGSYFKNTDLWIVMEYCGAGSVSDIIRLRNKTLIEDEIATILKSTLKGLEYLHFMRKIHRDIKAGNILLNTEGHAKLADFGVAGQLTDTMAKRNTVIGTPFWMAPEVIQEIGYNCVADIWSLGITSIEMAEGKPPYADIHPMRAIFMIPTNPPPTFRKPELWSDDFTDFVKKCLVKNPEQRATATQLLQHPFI
The settings on record: 2 µM protein, 10 µM inhibitor, average of 3 experiments, each in duplicate.

The next assay concerns the target SRC Catalytic Domain (Homo sapiens, UniProt P12931). More on the design: For all of them, we expressed and purified the catalytic domain separately; His-tag; made in house; host or cells: Escherichia coli. The settings on record: 2 µM protein, 10 µM inhibitor, average of 3 experiments, each in duplicate.
The target of another assay is T8, DMPK Catalytic Domain (Homo sapiens, UniProt Q09013).
T8 construct: For all of them, we expressed and purified the catalytic domain separately; His-tag; made in house; host or cells: Escherichia coli
T8 sequence (Q09013 71-339 limits assumed): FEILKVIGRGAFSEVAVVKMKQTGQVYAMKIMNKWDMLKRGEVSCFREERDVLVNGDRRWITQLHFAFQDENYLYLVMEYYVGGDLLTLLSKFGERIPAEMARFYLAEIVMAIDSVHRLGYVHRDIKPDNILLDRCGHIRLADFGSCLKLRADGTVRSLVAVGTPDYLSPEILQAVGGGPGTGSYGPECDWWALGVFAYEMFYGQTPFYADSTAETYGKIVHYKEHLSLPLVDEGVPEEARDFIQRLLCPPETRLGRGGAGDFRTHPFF
Particulars: 2 µM protein, 10 µM inhibitor, average of 3 experiments, each in duplicate.

The target of a further assay is T9, FES Catalytic Domain+SH2 (Homo sapiens, UniProt P07332).
T9 construct: for 8, we also made a longer version containing one or more additional domains; His-tag; made in house; host or cells: Escherichia coli
The settings on record: 2 µM protein, 10 µM inhibitor, average of 3 experiments, each in duplicate.

Another assay has as its target T10, PAK4 Catalytic Domain (Homo sapiens, UniProt O96013).
T10 construct: For all of them, we expressed and purified the catalytic domain separately; His-tag; made in house; host or cells: Escherichia coli
Particulars: 2 µM protein, 10 µM inhibitor, average of 3 experiments, each in duplicate.

The target of the next assay is T11, PAK7 Catalytic Domain (Homo sapiens, UniProt Q9P286).
T11 construct: For all of them, we expressed and purified the catalytic domain separately; His-tag; made in house; host or cells: Escherichia coli
Particulars: 2 µM protein, 10 µM inhibitor, average of 3 experiments, each in duplicate.

Assay [2] concerns the target SRC Catalytic Domain+SH2+SH3 (Homo sapiens, UniProt P12931). The settings on record: 2 µM protein, 10 µM inhibitor, average of 3 experiments, each in duplicate.
For assay [3], the target named is T12, STK3 Catalytic domain+SARAH (Homo sapiens, UniProt Q13188).
T12 construct: for 8, we also made a longer version containing one or more additional domains; His-tag; made in house; host or cells: Escherichia coli
T12 sequence (Q13188 1-491): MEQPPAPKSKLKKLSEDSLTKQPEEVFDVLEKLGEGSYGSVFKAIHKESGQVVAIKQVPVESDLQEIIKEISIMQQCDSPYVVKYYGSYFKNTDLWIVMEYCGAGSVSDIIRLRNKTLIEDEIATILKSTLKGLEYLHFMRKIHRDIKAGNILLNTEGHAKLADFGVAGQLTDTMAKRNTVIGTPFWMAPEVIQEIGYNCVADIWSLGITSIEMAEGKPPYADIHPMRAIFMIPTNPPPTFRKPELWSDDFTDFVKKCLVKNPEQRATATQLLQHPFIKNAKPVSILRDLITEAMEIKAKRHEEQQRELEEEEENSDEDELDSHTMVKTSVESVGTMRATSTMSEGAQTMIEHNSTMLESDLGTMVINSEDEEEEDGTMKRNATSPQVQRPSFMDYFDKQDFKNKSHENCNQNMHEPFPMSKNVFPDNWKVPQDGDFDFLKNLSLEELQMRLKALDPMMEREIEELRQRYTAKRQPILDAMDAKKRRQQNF
Particulars: 2 µM protein, 10 µM inhibitor, average of 3 experiments, each in duplicate.

For the next assay, the target named is T13, FES Catalytic Domain (Homo sapiens, UniProt P07332).
T13 construct: For all of them, we expressed and purified the catalytic domain separately; His-tag; made in house; host or cells: Escherichia coli
Particulars: 2 µM protein, 10 µM inhibitor, average of 3 experiments, each in duplicate.

T13 sequence (P07332 561-822 limits assumed): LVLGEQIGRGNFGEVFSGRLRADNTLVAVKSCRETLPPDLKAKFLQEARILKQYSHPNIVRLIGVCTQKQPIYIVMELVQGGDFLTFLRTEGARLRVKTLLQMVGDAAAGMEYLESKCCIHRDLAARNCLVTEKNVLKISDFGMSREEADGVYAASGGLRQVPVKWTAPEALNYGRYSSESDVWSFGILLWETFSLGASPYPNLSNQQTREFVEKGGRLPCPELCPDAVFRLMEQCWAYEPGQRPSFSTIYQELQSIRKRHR
T9 sequence (P07332 448-822 limits assumed): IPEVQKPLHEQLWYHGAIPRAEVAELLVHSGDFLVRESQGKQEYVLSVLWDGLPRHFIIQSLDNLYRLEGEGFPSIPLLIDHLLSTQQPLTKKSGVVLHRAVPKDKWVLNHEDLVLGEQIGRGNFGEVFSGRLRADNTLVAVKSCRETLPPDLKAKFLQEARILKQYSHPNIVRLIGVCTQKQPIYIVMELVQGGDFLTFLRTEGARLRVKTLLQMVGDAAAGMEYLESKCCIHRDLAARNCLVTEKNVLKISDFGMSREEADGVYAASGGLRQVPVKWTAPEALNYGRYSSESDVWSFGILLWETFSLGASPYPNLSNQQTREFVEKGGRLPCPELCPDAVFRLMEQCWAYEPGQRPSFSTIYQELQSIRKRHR
T11 sequence (Q9P286 449-700 limits assumed): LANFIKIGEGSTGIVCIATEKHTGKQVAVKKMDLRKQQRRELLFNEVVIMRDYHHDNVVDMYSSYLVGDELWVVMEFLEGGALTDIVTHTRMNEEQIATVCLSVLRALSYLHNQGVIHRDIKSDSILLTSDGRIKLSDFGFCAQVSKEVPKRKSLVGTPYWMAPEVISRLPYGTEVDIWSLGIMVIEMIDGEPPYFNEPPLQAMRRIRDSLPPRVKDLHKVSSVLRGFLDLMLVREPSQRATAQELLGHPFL
T6 sequence (O96013 whole entry, the tested form may be a part): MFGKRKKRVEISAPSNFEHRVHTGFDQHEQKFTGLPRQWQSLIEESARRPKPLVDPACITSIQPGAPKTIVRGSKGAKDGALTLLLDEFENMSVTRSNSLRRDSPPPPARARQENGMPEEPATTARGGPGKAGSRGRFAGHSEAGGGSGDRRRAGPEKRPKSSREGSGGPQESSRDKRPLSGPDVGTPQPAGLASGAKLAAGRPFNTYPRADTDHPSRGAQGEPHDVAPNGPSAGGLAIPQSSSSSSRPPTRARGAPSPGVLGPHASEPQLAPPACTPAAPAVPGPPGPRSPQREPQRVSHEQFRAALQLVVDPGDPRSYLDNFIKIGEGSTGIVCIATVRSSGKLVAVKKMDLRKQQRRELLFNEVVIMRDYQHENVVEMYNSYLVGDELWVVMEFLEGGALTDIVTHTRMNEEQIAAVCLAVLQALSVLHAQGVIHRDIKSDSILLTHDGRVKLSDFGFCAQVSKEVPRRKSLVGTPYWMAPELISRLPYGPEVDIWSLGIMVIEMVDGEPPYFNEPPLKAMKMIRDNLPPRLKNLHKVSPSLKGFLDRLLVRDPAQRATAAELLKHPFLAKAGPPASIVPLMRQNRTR
T4 sequence (O96017 220-486 limits assumed): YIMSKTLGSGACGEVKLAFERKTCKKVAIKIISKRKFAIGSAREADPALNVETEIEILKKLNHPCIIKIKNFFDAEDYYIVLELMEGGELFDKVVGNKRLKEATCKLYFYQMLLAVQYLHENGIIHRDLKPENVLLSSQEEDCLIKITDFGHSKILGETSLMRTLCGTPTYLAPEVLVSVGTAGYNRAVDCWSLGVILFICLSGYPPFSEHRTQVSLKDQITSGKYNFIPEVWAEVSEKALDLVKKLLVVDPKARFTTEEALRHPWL
T1 sequence (Q9Y243 122-479): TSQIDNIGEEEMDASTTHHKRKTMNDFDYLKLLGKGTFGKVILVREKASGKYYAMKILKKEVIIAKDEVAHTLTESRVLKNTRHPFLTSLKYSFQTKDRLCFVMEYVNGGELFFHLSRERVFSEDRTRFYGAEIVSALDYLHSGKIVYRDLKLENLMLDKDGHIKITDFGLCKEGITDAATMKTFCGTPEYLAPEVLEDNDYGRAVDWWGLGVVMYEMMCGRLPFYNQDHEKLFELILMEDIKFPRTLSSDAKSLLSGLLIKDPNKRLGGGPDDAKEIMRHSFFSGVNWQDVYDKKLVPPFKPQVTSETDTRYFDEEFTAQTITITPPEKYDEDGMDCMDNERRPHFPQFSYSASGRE
T5 sequence (Q14289 425-683 limits assumed): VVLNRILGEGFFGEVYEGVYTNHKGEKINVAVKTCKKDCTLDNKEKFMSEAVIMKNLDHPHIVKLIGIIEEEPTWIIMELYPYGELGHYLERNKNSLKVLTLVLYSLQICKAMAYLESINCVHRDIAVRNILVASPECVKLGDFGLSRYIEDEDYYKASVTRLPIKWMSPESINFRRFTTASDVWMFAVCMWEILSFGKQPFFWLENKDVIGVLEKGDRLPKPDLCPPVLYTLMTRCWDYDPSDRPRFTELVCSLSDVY
T10 sequence (O96013 321-572 limits assumed): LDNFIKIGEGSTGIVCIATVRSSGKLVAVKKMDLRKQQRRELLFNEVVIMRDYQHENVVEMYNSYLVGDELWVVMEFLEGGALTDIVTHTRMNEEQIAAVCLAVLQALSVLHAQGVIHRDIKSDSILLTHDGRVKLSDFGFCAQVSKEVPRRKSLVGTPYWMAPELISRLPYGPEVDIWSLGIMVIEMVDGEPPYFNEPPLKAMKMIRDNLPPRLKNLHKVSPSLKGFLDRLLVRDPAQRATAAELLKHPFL

Consider `Cc1cc(C=C2C(=O)C=CC2=O)cc(C)c1O` [TX-1918], for which the “Melting temperature (Tm) shift” value is listed as 4.5 degrees Celcius on AKT3 Catalytic Domain; 0.4 degrees Celcius at CDK2 + Cyclin A; 0.4 degrees Celcius on CDK2 + Cyclin E; 2.6 degrees Celcius at CHK2 Catalytic Domain; 0.5 degrees Celcius on FAK2 Catalytic Domain; 1.1 degrees Celcius in [1]. Besides, the entries for the “Melting temperature (Tm) shift” value on STK3 Catalytic Domain and on SRC Catalytic Domain were 0.1 degrees Celcius and 0.0 degrees Celcius, respectively.

Turning to Scytonemin [Scytonemin, Lyngbya sp.], the “Melting temperature (Tm) shift” value amounted to 0.0 degrees Celcius on AKT3 Catalytic Domain; 0.3 degrees Celcius on CDK2 + Cyclin A; 0.8 degrees Celcius on CDK2 + Cyclin E; 0.3 degrees Celcius on DMPK Catalytic Domain; 0.2 degrees Celcius at FAK2 Catalytic Domain; 0.2 degrees Celcius at FES Catalytic Domain+SH2. Besides, the “Melting temperature (Tm) shift” value in assay [1] is recorded as 0.7 degrees Celcius; on PAK4 Catalytic Domain, 0.6 degrees Celcius; on PAK7 Catalytic Domain, 0.0 degrees Celcius; in assay [2] it was 0.3 degrees Celcius; in [3], 0.4 degrees Celcius; at STK3 Catalytic Domain, 0.5 degrees Celcius. The “Melting temperature (Tm) shift” value at SRC Catalytic Domain worked out at 0.0 degrees Celcius.

Regarding `COc1cc(Nc2ncc3ccn(-c4cccc(CCC#N)c4)c3n2)cc(OC)c1OC` [Keratinocyte Differentiation Inducer], the “Melting temperature (Tm) shift” value came out at 0.0 degrees Celcius at AKT3 Catalytic Domain; 4.3 degrees Celcius at CDK2 + Cyclin A; 2.3 degrees Celcius on CDK2 + Cyclin E; 8.3 degrees Celcius on CHK2 Catalytic Domain; 3.2 degrees Celcius on DMPK Catalytic Domain; 3.4 degrees Celcius at FES Catalytic Domain+SH2. In addition, the “Melting temperature (Tm) shift” value on FES Catalytic Domain is given as 5.5 degrees Celcius; in [1] it was 7.3 degrees Celcius; at PAK4 Catalytic Domain, 5.5 degrees Celcius; on PAK7 Catalytic Domain, 0.0 degrees Celcius; in assay [2], 1.8 degrees Celcius; in [3], 4.3 degrees Celcius. The “Melting temperature (Tm) shift” value was 3.6 degrees Celcius on STK3 Catalytic Domain and 3.0 degrees Celcius at SRC Catalytic Domain.

`O=C(c1cc2cc(O)ccc2[nH]1)c1cc2cc(O)ccc2[nH]1` [Flt-3 Inhibitor II]: the “Melting temperature (Tm) shift” value at AKT3 Catalytic Domain came to 0.1 degrees Celcius; at CDK2 + Cyclin A it was 0.9 degrees Celcius; on CDK2 + Cyclin E, 0.2 degrees Celcius; on CHK2 Catalytic Domain it was 2.2 degrees Celcius; on FAK2 Catalytic Domain, 0.4 degrees Celcius; at FES Catalytic Domain+SH2, 0.0 degrees Celcius. The “Melting temperature (Tm) shift” value is recorded as 1.0 degrees Celcius at FES Catalytic Domain; 0.9 degrees Celcius in assay [1]; 0.9 degrees Celcius on PAK4 Catalytic Domain; 0.6 degrees Celcius on PAK7 Catalytic Domain; 1.3 degrees Celcius in assay [2]; 2.3 degrees Celcius in [3]. Further, the “Melting temperature (Tm) shift” value on STK3 Catalytic Domain stood at 2.3 degrees Celcius; at SRC Catalytic Domain, 1.3 degrees Celcius.

Turning to `O=C1Nc2ccccc2C1=C1Nc2ccccc2C1=NOCCC(O)CO` (centres unmarked) [Indirubin Derivative E804], the “Melting temperature (Tm) shift” value on AKT3 Catalytic Domain turned out to be 0.7 degrees Celcius; at CDK2 + Cyclin E, 1.1 degrees Celcius; on CHK2 Catalytic Domain, 2.2 degrees Celcius; at DMPK Catalytic Domain it was 0.6 degrees Celcius; on FAK2 Catalytic Domain, 2.8 degrees Celcius; at FES Catalytic Domain+SH2, 1.0 degrees Celcius. The “Melting temperature (Tm) shift” value is 1.1 degrees Celcius on FES Catalytic Domain; 2.1 degrees Celcius in [1]; 1.9 degrees Celcius on PAK4 Catalytic Domain; 1.7 degrees Celcius at PAK7 Catalytic Domain; 2.8 degrees Celcius in assay [2]; 3.5 degrees Celcius in assay [3]. Moreover, the “Melting temperature (Tm) shift” value on STK3 Catalytic Domain amounted to 5.2 degrees Celcius; on SRC Catalytic Domain, 3.1 degrees Celcius.

For the compound `COc1cc2ncnc(Nc3ccc(OCc4ccccc4)cc3)c2cc1OC` [EGFR/ErbB-2 Inhibitor], the “Melting temperature (Tm) shift” value at AKT3 Catalytic Domain was 0.1 degrees Celcius; on CDK2 + Cyclin A, 0.0 degrees Celcius; on CDK2 + Cyclin E, 0.1 degrees Celcius; at CHK2 Catalytic Domain, 11.2 degrees Celcius; at DMPK Catalytic Domain, 0.3 degrees Celcius; on FES Catalytic Domain+SH2, 0.1 degrees Celcius. The “Melting temperature (Tm) shift” value at FES Catalytic Domain stood at 0.0 degrees Celcius; in assay [1], 0.0 degrees Celcius; on PAK4 Catalytic Domain, 0.3 degrees Celcius; on PAK7 Catalytic Domain it was 0.0 degrees Celcius; in assay [2], 0.8 degrees Celcius; in assay [3], 0.2 degrees Celcius. Moreover, the “Melting temperature (Tm) shift” value at STK3 Catalytic Domain is 0.2 degrees Celcius; on SRC Catalytic Domain, 1.4 degrees Celcius.

On to `COc1ccc2c(c1)c(C1=C(c3c[nH]c4ccccc34)C(=O)NC1=O)cn2CCCN(C)C` [Gö 6983], for which the “Melting temperature (Tm) shift” value on AKT3 Catalytic Domain came out at 0.0 degrees Celcius; at CDK2 + Cyclin A, 0.4 degrees Celcius; on CDK2 + Cyclin E, 0.1 degrees Celcius; on CHK2 Catalytic Domain, 5.6 degrees Celcius; on DMPK Catalytic Domain, 1.9 degrees Celcius; at FES Catalytic Domain+SH2, 0.7 degrees Celcius. Moreover, the “Melting temperature (Tm) shift” value on FES Catalytic Domain is listed as 0.9 degrees Celcius; at PAK4 Catalytic Domain it was 0.0 degrees Celcius; on PAK7 Catalytic Domain, 0.1 degrees Celcius; in assay [3], 0.7 degrees Celcius; at STK3 Catalytic Domain, 0.2 degrees Celcius; on SRC Catalytic Domain, 0.2 degrees Celcius.
